Columns and labels:
Human β2 adrenoceptor = target: T1, Human β2 adrenoceptor (Homo sapiens, UniProt P07550); test: β2 Adrenoceptor Radioligand Binding Assay; conditions: human β2 adrenoceptor membranes, 125-I Cyanopindolol; read-out: B2 binding affinity (Ki class)
T1 construct: purchased Perkin Elmer
Procedure: β2 Adrenoceptor Radioligand Binding Assay
The assay was carried out in 96-well polypropylene plates in a volume of 200 ul. The assay buffer used was 25 mM HEPES, 0.5% BSA (w/v), 1 mM EDTA, 0.02% ascorbic acid (v/v), (pH 7.4). The final assay concentration of DMSO was 0.5% (v/v). The plates were sealed and incubated for 1 h at room temperature on an orbital shaker (slow speed). Membranes were harvested onto 96-well unifilter GF/C filter plates pre-treated with 0.5% polyethyleneimine (v/v), using a filter manifold, washed six times with 200 ul of wash buffer containing 10 mM HEPES and 500 mM NaCl. The plates were dried before addition of 50 μl of microscint-0, sealed then read in a Trilux Microbeta scintillation counter. IC50 values are determined from competition curves using a non-linear curve fitting program. Ki values were calculated from IC50 values by the Cheng and Prusoff equation.

Human M3 receptor = target: T2, Human M3 receptor (Homo sapiens, UniProt P20309); test: M3 Receptor Radioligand Binding Assay; conditions: human M3 receptor membranes, [3H]-N-methyl scopolamine; read-out: M3 binding affinity (Ki class)
T2 construct: purchased Perkin Elmer
T2 sequence (P20309 whole entry): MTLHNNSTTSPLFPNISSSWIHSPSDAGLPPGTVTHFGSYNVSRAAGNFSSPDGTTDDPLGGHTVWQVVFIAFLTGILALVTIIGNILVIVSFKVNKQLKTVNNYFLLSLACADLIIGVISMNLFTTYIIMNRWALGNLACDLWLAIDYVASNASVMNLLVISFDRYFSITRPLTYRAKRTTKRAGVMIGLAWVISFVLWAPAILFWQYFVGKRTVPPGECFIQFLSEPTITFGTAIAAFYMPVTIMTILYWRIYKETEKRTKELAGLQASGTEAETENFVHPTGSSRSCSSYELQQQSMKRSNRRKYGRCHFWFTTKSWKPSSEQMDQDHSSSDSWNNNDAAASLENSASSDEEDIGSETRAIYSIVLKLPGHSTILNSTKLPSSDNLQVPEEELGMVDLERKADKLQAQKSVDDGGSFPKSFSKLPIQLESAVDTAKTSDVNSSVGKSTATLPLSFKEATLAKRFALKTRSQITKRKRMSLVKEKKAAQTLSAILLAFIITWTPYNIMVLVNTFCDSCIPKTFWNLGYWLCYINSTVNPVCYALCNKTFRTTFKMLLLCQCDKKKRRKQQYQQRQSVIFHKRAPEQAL
Procedure: Biological Characterization M3 Receptor Radioligand Binding Assay
The assay was carried out in 96-well polypropylene plates in a volume of 250 ul. […] The final assay concentration of DMSO was 0.5% (v/v). The plates were sealed and incubated for 2 h at room temperature on an orbital shaker (slow speed). Membranes were harvested onto 96-well unifilter GF/C filter plates pre-treated with 0.5% polyethyleneimine (v/v), using a filter manifold, washed four times with 200 ul of assay buffer. The plates were dried before addition of 50 μl of microscint-0, sealed then read in a Trilux Microbeta scintillation counter.

T1 sequence (P07550 whole entry): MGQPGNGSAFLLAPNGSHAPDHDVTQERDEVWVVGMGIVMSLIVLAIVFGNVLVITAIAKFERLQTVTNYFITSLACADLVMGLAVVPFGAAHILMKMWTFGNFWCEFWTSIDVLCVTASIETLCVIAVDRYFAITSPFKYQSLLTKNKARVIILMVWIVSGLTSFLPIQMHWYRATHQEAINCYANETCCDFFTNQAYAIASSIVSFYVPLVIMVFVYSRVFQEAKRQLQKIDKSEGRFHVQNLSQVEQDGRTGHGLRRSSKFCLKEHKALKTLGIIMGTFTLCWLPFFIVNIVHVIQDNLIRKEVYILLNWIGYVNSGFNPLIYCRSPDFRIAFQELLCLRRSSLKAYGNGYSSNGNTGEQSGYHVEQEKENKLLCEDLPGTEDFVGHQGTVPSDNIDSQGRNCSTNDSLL

| Structure (SMILES) | Ki (Human β2 adrenoceptor) | Ki (Human M3 receptor) |
| --- | --- | --- |
| O=C(c1ccc(OCCCCCNC[C@H](O)c2ccc(O)c3[nH]c(=O)ccc23)cc1)N1CCC(C(=O)O[C@H]2CN3CCC2CC3)(c2ccccc2)CC1 [Compound 1, (R)-Quinuclidin-3-yl 1-(4-((5-(((R)-2-hydroxy-2-(8-hydroxy-2-oxo-1,2-dihydroquinolin-5-yl)ethyl)amino)pentyl)oxy)benzoyl)-4-phenylpiperidine-4-carboxylate] | < 1 nM | < 1 nM |
| O=C(c1ccc(OCCCCCNC[C@H](O)c2ccc(O)c3[nH]c(=O)ccc23)cc1)N1CC(C(=O)O[C@H]2CN3CCC2CC3)(c2ccccc2)C1 [Compound 1A, (R)-Quinuclidin-3-yl 1-(4-((5-(((R)-2-hydroxy-2-(8-hydroxy-2-oxo-1,2-dihydroquinolin-5-yl)ethyl)amino)pentyl)oxy)benzoyl)-3-phenylazetidine-3-carboxylate] | < 1 nM | 1 to 10 nM |
| O=C(c1cccc(OCCCCCNC[C@H](O)c2ccc(O)c3[nH]c(=O)ccc23)c1)N1CCC(C(=O)O[C@H]2CN3CCC2CC3)(c2ccccc2)CC1 [Compound 2, (R)-Quinuclidin-3-yl 1-(3-((5-(((R)-2-hydroxy-2-(8-hydroxy-2-oxo-1,2-dihydroquinolin-5-yl)ethyl)amino)pentyl)oxy)benzoyl)-4-phenylpiperidine-4-carboxylate] | < 1 nM | 1 to 10 nM |
| O=C(c1ccc(OCCCCCCNC[C@H](O)c2ccc(O)c3[nH]c(=O)ccc23)cc1)N1CC(C(=O)O[C@H]2CN3CCC2CC3)(c2ccccc2)C1 [Compound 2A, (R)-Quinuclidin-3-yl 1-(4-((6-(((R)-2-hydroxy-2-(8-hydroxy-2-oxo-1,2-dihydroquinolin-5-yl)ethyl)amino)hexyl)oxy)benzoyl)-3-phenylazetidine-3-carboxylate] | < 1 nM | < 1 nM |
| COc1cc(C(=O)N2CCC(C(=O)O[C@H]3CN4CCC3CC4)(c3ccccc3)CC2)ccc1OCCCCCNC[C@H](O)c1ccc(O)c2[nH]c(=O)ccc12 [Compound 3, (R)-Quinuclidin-3-yl 1-(4-((5-(((R)-2-hydroxy-2-(8-hydroxy-2-oxo-1,2-dihydroquinolin-5-yl)ethyl)amino)pentyl)oxy)-3-methoxybenzoyl)-4-phenylpiperidine-4-carboxylate] | < 1 nM | 1 to 10 nM |
| O=C(c1ccc(OCCCCCCNC[C@H](O)c2ccc(O)c3[nH]c(=O)ccc23)cc1)N1CC(C(=O)O[C@H]2CN3CCC2CC3)(c2ccc(F)cc2)C1 [Compound 3A, (R)-Quinuclidin-3-yl 3-(4-fluorophenyl)-1-(4-((6-(((R)-2-hydroxy-2-(8-hydroxy-2-oxo-1,2-dihydroquinolin-5-yl)ethyl)amino)hexyl)oxy)benzoyl)azetidine-3-carboxylate] | < 1 nM | 1 to 10 nM |
| O=C(c1ccc(OCCCCCNC[C@H](O)c2ccc(O)c3[nH]c(=O)ccc23)c(Cl)c1)N1CCC(C(=O)O[C@H]2CN3CCC2CC3)(c2ccccc2)CC1 [Compound 4, (R)-Quinuclidin-3-yl 1-(4-((5-(((R)-2-hydroxy-2-(8-hydroxy-2-oxo-1,2-dihydroquinolin-5-yl)ethyl)amino)pentyl)oxy)-3-chlorobenzoyl)-4-phenylpiperidine-4-carboxylate] | < 1 nM | 1 to 10 nM |
| O=C(c1cccc(OCCCCCNC[C@H](O)c2ccc(O)c3[nH]c(=O)ccc23)c1)N1CC(C(=O)O[C@H]2CN3CCC2CC3)(c2ccccc2)C1 [Compound 4A, (R)-Quinuclidin-3-yl 1-(3-((5-(((R)-2-hydroxy-2-(8-hydroxy-2-oxo-1,2-dihydroquinolin-5-yl)ethyl)amino)pentyl)oxy)benzoyl)-3-phenylazetidine-3-carboxylate] | < 1 nM | 1 to 10 nM |
| O=C(c1cc(Cl)c(OCCCCCNC[C@H](O)c2ccc(O)c3[nH]c(=O)ccc23)c(Cl)c1)N1CCC(C(=O)O[C@H]2CN3CCC2CC3)(c2ccccc2)CC1 [Compound 5, (R)-Quinuclidin-3-yl 1-(3,5-dichloro-4-((5-(((R)-2-hydroxy-2-(8-hydroxy-2-oxo-1,2-dihydroquinolin-5-yl)ethyl)amino)pentyl)oxy)benzoyl)-4-phenylpiperidine-4-carboxylate] | 1 to 10 nM | 1 to 10 nM |

Source: patent publication US9662323B2, “Compounds having muscarinic receptor antagonist and beta2 adrenergic receptor agonist activity” (CHIESI FARMACEUTICI S.p.A., priority 2015, dated 2017)
